These results are taken from US5712282A, “Method for therapeutically treating tardive dyskinesia and uses thereof” (Iyo; Masaomi, priority 1994, dated 1998).

One series addresses phosphodiesterase IV. As to conditions: Type of PDE inhibited: IV; in vitro; cited from earlier work.
Series [1] has as its system SD-strain rats. Nature of the series: Test Example 3: oral dyskinesia induced by haloperidol (1.5 mg/kg i.p. daily, 5 weeks) in rats. It counts as in vivo, SD-strain rats (female). As to the method:
Haloperidol in the form of a suspension of haloperidol in 0.5% aqueous carboxymethylcellulose was intraperitoneally administrated at a dose of 1.5 mg/kg to each rat of SD-strain rats (female, 7 to 8 rats per group) once a day for consecutive five weeks.
Ro 20-1724 was formulated into the form of a suspension in which said compound was partially dissolved and partially dispersed in a physiological saline containing 10% Cremophor. On the next day of the final administration of haloperidol, Ro 20-1724 as the suspension was intraperitoneally administered at a dose of 3 mg/kg, […] or 30 mg/kg in the rats under test. To the control group of rats was administered only the physiological saline containing 10% Cremophor.
The numbers of the vacuous chewing movements and the abnormal tongue-protruding movements appearing during the 15 min. period of the observation were counted as the indices of oral dyskinesia in the rats. The net observation time was calculated by substracting from the total observation time of 15 minutes the amount of time which the rat spent in exploration or grooming. The indices of the oral dyskinesia were expressed as the number of occurrence of the abnormal movements observed in one minute of the net observation time.

A further series in a line: acute toxicity in rats. The note with it: rat, in vivo.
Series [2] relates to SD-strain rats. Nature of the series: Test Example 2: oral dyskinesia induced by haloperidol decanoate (25 mg/kg i.m. every 4 weeks, 24 weeks) in rats. In kind it is in vivo, SD-strain rats (male). The note with it: for Number of the tongue protrusions / Number of the chewings: 15 min observation from 15 min after dosing, Mean±SE; for Number of the tongue protrusions: control 17.2 ± 5.5; for Number of the chewings: control 213.3 ± 50.5; for suppression of oral dyskinesia: haloperidol decanoate-induced, rats, i.p. As for the experimental part:
Haloperidol decanoate was intramuscularly injected in the femoral region of each rat of SD-strain rats (male, 6 rats per group) at a dose of 25 mg/kg once for every 4 weeks during the total period of 24 weeks.
To the control group of rats was intraperitoneally administered only the physiological saline containing 10% Cremophor.
The numbers of the vacuous chewing movements and the abnormal tongue-protruding movements appearing during the 15 min. period of the observation were counted as indices of oral dyskinesia in the rats.
Values of Mean±Standard error of the numbers of the abnormal movements as observed were calculated, and the results obtained are shown in Table 3 below.

A further series deals with cAMP in the brain. As to conditions: rats; animal tests, J. Med. Chem. 34(1), 291-293 (1991); cited from earlier work.
For series [3], the system named is SD-strain rats. Nature of the series: Test Example 1: tardive dyskinesia induced by haloperidol (1.5 mg/kg i.p. daily, 3 weeks) in rats. In kind it is in vivo, SD-strain rats (male). As to conditions: for Number of the tongue protrusions / Number of the chewings: 15 min observation from 3 min after dosing, Mean±SE; for Number of the tongue protrusions: control 7.7 ± 2.1; for Number of the chewings: control 111.2 ± 27.8. As to the method: After lapse of 96 hours from the completion of the last administration of haloperidol, the number of the vacuous chewing movements of the mouth and the number of abnormal tongue-protruding movements of the rats were counted as the parameters indicative of tardive dyskinesia.

Another series addresses phosphodiesterase I. The note with it: Type of PDE inhibited: I; in vitro; cited from earlier work.
In the next series the target is phosphodiesterase I ~ V. The note with it: Type of PDE inhibited: I ~ V; in vitro; cited from earlier work.
Another series has as its system patients. The note with it: long-term administration; cited from earlier work.

Structures are written as SMILES.

As to `CCCCn1c(=O)c2c(ncn2CC(C)=O)n(CCCC)c1=O` [Denbufylline, 7-(2-oxopropyl)-1,3-di-n-butylxanthine], at phosphodiesterase IV, the IC50 (in general, the midpoint of a concentration-inhibition curve) is 0.3 µM.
Take `CCCCOc1cc(CC2CNC(=O)N2)ccc1OC` (centres unmarked) [Ro 20-1724]: on phosphodiesterase IV, the IC50 is 2 µM. Besides, in the series with SD-strain rats [1] (3 mg/kg i.p., number in one minute of net observation time, Mean±SE, n = 8, control 1.90 ± 0.87), the “Number of the tongue protrusions” value worked out at 0.46 ± 0.17. For the same compound, the “Number of the chewings” value in the series with SD-strain rats [1] (3 mg/kg i.p., number in one minute of net observation time, Mean±SE, n = 8, control 16.2 ± 2.4) came to 11.7 ± 2.1. Moreover, the “suppression of oral dyskinesia” value in the series with SD-strain rats [1] (haloperidol-induced, rats, i.p. 3, 10, 30 mg/kg) is given as “suppressed in a dose dependent manner the oral dyskinesia”.
Take `COc1ccc(C2CNC(=O)C2)cc1OC1CCCC1` (racemic) [Rolipram, (±)-4-[3-(cyclopentyloxy)-4-methoxyphenyl]-2-pyrrolidinone]: the LD50 (commonly the dose at which mortality reaches 50%) in “acute toxicity in rats” (ip, intraperitoneal) is approximately 500 mg/kg; in the series “acute toxicity in rats” (oral) it was approximately 1200 mg/kg. In addition, the “Number of the tongue protrusions” value with SD-strain rats [2] (0.1 mg/kg i.p.) is 6.0 ± 2.2; in the series on SD-strain rats [2] (0.5 mg/kg i.p.), 1.7 ± 1.1; with SD-strain rats [2] (1.0 mg/kg i.p.) it was 1.3 ± 1.1; in the series on SD-strain rats [3] (0.5 mg/kg i.p.) it was 2.7 ± 1.7; in the series with SD-strain rats [3] (1.0 mg/kg i.p.), 1.5 ± 1.5. Further, the “Number of the chewings” value with SD-strain rats [2] (0.1 mg/kg i.p.) is on record as 138.0 ± 38.1; in the series on SD-strain rats [2] (0.5 mg/kg i.p.), 33.8 ± 13.8; in the series with SD-strain rats [2] (1.0 mg/kg i.p.), 42.0 ± 9.5; in the series with SD-strain rats [3] (0.5 mg/kg i.p.), 32.2 ± 14.5; with SD-strain rats [3] (1.0 mg/kg i.p.), 8.8 ± 4.0. For the same compound, the “suppression of oral dyskinesia” value in the series with SD-strain rats [2] was “suppress in a dose-dependent manner the oral dyskinesia”. In addition, the “concentration of cAMP in the brain” value in the series on cAMP in the brain was “can increase the concentration of cAMP in the brain of rats”. The “therapeutic effect on symptoms of tardive dyskinesia” value with SD-strain rats [3] (haloperidol-induced rat model, i.p. 0.5 and 1.0 mg/kg) is listed as “suppresses in a dose-dependent manner the symptoms of tardive dyskinesia”.
For the compound `CCOC(=O)C1=C[C@]2(CC)CCCN3CCc4c(n1c1ccccc41)[C@@H]32` [Vinpocetine, eburnamenine 14-carboxylic acid ethyl ester], on phosphodiesterase I, the half-inhibitory concentration (IC50) was 20 µM.
For `Cn1c(=O)c2[nH]cnc2n(C)c1=O` [Theophylline, 3,7-dihydro-1,3-dimethyl-1H-purine-2,6-dione], the IC50 at phosphodiesterase I ~ V is approximately 200 µM.
On to `O=C(CCCN1CCC(O)(c2ccc(Cl)cc2)CC1)c1ccc(F)cc1` [haloperidol], for which the adverse reaction result with patients is “induction of tardive dyskinesia”.
On to `CC(C)Cn1c(=O)n(C)c(=O)c2[nH]cnc21` [IBMX, 3-isobutyl-1-methylxanthine], for which, in the series with SD-strain rats [2] (2.0 mg/kg i.p.), the “Number of the tongue protrusions” value is listed as 4.8 ± 1.8 and the “Number of the chewings” value was 135.3 ± 45.0. Further, the “suppression of oral dyskinesia” value in the series with SD-strain rats [2] was “had a tendency to suppress the above-mentioned oral dyskinesia”.
